Data published in patent US8940742B2, “Heterocyclic compounds and uses thereof” (Infinity Pharmaceuticals, Inc., priority 2012, dated 2015).

What was measured:
[1] = target: T1, PI3K α (Homo sapiens, UniProt P42336); test: PI3-Kinase Promega ADP-Glo Max assay; format: biochemical; conditions: 20 nM kinase, 3 mM ATP, 500 uM diC8-PtdInsP
T1 construct: purchased Millipore
Summary of the method: (§1)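 Human class I PI3K (20 nM α or δ, 40 nM β) pre-incubated 15 min with compound in HEPES pH 7.4 buffer with MgCl2, then reacted 2 h at room temperature with 3 mM ATP and 500 uM diC8-PtdInsP. ADP measured by ADP-Glo Max luminescence; % inhibition fitted to 4-parameter logistic for IC50.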

[2] = target: T2, PI3K δ (Homo sapiens, UniProt O00329); test: PI3-Kinase Promega ADP-Glo Max assay; format: biochemical; conditions: 20 nM kinase, 3 mM ATP, 500 uM diC8-PtdInsP
T2 construct: purchased Millipore
T2 sequence (O00329 whole entry): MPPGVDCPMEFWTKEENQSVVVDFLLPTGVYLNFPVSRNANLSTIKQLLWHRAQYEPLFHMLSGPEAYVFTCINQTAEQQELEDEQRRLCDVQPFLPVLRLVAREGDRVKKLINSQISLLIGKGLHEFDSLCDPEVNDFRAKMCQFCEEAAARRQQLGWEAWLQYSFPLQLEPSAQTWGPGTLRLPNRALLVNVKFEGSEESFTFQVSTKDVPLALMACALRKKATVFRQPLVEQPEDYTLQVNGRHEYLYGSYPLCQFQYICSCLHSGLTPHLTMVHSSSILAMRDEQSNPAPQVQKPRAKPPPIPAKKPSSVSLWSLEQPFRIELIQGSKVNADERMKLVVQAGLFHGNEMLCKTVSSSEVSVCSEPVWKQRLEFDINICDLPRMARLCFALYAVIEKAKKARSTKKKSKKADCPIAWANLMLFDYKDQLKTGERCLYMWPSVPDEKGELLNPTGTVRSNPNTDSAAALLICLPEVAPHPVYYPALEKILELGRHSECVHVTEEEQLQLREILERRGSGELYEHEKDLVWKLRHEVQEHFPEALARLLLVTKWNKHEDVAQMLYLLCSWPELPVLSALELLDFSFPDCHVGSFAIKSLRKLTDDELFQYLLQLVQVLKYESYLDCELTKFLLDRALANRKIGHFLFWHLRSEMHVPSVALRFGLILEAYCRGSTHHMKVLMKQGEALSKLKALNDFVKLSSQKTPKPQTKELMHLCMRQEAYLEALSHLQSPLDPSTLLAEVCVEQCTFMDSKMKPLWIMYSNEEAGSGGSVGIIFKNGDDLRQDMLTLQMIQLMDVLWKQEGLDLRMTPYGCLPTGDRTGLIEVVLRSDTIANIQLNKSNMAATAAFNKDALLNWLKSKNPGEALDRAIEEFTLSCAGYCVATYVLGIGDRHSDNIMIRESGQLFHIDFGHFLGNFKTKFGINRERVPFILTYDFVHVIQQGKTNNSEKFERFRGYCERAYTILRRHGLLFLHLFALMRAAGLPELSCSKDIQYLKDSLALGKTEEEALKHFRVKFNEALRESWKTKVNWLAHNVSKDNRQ
T2 sequence (P27986 whole entry partner): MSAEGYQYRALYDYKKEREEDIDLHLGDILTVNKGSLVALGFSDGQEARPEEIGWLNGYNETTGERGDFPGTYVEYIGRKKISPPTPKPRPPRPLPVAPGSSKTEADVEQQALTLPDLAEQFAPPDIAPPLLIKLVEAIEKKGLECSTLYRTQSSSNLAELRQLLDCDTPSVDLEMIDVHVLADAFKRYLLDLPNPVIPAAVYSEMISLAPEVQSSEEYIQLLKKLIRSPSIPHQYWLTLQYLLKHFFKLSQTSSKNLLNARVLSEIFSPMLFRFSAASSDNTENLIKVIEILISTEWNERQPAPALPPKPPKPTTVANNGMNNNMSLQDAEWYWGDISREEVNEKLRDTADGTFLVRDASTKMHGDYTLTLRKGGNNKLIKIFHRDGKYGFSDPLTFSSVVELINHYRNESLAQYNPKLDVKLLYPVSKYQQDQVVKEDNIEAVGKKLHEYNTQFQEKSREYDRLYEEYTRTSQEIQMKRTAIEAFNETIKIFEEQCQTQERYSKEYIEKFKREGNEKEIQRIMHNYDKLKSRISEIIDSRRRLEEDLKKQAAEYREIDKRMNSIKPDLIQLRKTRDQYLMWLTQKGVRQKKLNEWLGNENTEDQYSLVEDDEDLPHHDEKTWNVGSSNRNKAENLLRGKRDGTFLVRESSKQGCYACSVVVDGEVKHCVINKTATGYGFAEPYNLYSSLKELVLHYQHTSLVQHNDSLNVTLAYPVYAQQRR
Summary of the method: as §1

[3] = target: T3, PI3K β (Homo sapiens, UniProt P42338); test: PI3-Kinase Promega ADP-Glo Max assay; format: biochemical; conditions: 40 nM kinase, 3 mM ATP, 500 uM diC8-PtdInsP
T3 construct: purchased Millipore
T3 sequence (P42338 whole entry): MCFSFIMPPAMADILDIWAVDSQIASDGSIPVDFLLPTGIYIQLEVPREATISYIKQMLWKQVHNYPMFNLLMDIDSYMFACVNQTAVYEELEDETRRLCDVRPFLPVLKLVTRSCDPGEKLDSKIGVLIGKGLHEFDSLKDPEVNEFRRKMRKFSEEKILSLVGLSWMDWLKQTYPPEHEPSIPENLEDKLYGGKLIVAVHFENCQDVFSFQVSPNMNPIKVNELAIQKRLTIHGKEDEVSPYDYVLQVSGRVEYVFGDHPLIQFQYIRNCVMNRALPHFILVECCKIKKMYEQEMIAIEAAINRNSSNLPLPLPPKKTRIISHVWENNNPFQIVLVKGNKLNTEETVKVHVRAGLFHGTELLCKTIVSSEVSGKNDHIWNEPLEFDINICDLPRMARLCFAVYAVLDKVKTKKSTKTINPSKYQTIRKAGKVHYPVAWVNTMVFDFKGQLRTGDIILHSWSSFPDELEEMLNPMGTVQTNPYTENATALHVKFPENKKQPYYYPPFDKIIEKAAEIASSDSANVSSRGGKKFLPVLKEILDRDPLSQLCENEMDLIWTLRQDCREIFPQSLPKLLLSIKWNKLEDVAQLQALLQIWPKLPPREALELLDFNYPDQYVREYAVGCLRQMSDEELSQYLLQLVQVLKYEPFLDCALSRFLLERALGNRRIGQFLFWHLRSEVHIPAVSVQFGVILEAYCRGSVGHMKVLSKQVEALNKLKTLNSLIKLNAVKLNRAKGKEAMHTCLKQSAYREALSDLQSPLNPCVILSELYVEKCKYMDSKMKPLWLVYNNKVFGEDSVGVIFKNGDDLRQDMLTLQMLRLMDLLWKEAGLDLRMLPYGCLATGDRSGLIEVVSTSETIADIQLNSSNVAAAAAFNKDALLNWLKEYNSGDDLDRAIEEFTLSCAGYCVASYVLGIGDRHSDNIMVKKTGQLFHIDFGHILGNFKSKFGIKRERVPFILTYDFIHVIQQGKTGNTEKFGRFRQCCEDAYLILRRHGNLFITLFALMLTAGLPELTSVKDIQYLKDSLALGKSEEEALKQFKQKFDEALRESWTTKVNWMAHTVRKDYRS
T3 sequence (P27986 whole entry partner): as the sequence (P27986 whole entry partner) above
Summary of the method: as §1

[4] = target: T4, Raw264.7 p110 γ (Mus musculus, UniProt Q9JHG7); test: Raw264.7 p110 γ cellular assay (phospho-AKT); format: cell-based; conditions: serum-starved RAW264.7 cells stimulated with C5a
T4 construct: reduction of phospho-AKT in stimulated RAW 264.7 cells; endogenous in cells; host or cells: RAW264.7 macrophages
Text: (b) PI3K-γ Selective Assay
Briefly, serum-starved PAW264.7 cells are stimulated with a known GPCR agonist C5a. […] Cells can be treated with test compounds prior to, simultaneously with, or subsequent to the stimulation by C5a. RAW 264.7 cells respond to the complement component fragment C5a through activation of the C5a receptor, and the C5a receptor activates macrophages and induces cell migration.

[5] = target: T5, PI3K γ (Homo sapiens, UniProt P48736); test: PI3-Kinase Promega ADP-Glo Max assay; format: biochemical; conditions: 40 nM kinase, 3 mM ATP, 500 uM diC8-PtdInsP
T5 construct: purchased Millipore
T5 sequence (P48736 whole entry): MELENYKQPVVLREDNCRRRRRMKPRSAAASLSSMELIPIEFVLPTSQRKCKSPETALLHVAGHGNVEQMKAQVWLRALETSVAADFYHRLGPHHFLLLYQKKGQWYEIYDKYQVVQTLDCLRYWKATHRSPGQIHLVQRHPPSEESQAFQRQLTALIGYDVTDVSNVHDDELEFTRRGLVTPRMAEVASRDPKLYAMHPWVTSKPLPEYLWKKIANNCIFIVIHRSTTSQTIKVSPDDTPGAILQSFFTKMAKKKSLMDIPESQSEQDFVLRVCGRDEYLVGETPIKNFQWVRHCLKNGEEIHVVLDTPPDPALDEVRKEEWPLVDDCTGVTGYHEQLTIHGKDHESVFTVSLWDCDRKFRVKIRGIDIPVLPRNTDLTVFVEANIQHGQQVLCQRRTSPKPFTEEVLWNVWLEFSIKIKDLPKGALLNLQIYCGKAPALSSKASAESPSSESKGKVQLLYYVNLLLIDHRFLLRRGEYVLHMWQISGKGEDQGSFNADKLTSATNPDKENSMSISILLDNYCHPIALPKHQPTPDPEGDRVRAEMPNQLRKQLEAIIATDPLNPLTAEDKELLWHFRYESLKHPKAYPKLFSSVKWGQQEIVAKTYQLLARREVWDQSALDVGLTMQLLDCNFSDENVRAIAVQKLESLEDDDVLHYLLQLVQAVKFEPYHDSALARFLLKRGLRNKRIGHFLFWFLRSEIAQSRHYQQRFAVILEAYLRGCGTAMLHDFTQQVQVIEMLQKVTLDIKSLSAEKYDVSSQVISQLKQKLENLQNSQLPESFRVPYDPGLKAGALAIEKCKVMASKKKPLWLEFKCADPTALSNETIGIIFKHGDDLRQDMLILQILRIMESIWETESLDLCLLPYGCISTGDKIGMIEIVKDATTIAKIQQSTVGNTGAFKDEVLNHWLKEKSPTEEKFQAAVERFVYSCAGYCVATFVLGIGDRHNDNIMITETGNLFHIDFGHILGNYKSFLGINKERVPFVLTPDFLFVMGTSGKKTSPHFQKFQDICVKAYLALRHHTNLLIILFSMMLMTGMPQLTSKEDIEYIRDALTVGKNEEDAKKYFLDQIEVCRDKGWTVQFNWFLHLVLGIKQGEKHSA
Summary of the method: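 Human class I PI3K reactions ran 2 hours at room temperature, followed by stop solution (40 min) and detection mix (1 hour) before luminescence reading.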

[6] = target: RAJI p110 δ (Homo sapiens, UniProt O00329); test: RAJI p110 δ cellular assay (phospho-AKT);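 also: potency based on lowered phosphorylated AKT in RAJI cells, as a readout of PI3K-δ dependent B-cell receptor signaling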
Chain of RAJI p110 δ (O00329 whole entry): as the sequence (O00329 whole entry) above
Chain of RAJI p110 δ (P27986 whole entry partner): as the sequence (P27986 whole entry partner) above
Text: (a) PI3K-δ Selective Assay
Reduction of phospho-AKT is indicative of compounds that may inhibit B-cell proliferation and function in certain diseases.

SMILES	IC50 [1] [nM]	IC50 [2] [nM]	IC50 [3] [nM]	IC50 [4] [nM]	IC50 [5] [nM]	IC50 [6] [nM]
C[C@H](NC(=O)c1cncc2cccnc12)c1cc2cccc(Cl)c2c(=O)n1-c1ccccc1 [Compound 45]	> 10000	100 to 1000	1000 to 10000	< 100	1000 to 10000	< 100
C[C@H](NC(=O)c1c(N)nn2cccnc12)c1cc2cccc(Cl)c2c(=O)n1-c1ccc(F)cc1 [Compound 72]	1000 to 10000	1000 to 10000	100 to 1000	< 100	< 100	< 100
CC[C@H](NC(=O)c1c(N)nn2cccnc12)c1cc2cccc(Cl)c2c(=O)n1-c1ccccc1 [Compound 250]	1000 to 10000	< 100	< 100	< 100	100 to 1000	< 100
C[C@H](NC(=O)c1c(N)nn2cccnc12)c1cc2cccc(-c3cccs3)c2c(=O)n1-c1ccccc1 [Compound 271]	1000 to 10000	1000 to 10000	1000 to 10000	< 100	100 to 1000	100 to 1000
C[C@H](NC(=O)c1nc(-c2ccc(NS(C)(=O)=O)cc2)cnc1N)c1cc2cccc(Cl)c2c(=O)n1-c1ccccc1 [Compound 103]	> 10000	> 10000	> 10000	100 to 1000	1000 to 10000	1000 to 10000
C[C@H](NC(=O)c1c(N)nn2cccnc12)c1cc2cccc(C#CCCNC(=O)[C@H]3CCC(=O)O3)c2c(=O)n1-c1ccccc1 [Compound 161]	1000 to 10000	1000 to 10000	> 10000	< 100	100 to 1000	< 100
C[C@H](NC(=O)c1cnn2cccnc12)c1cc2cccc(Cl)c2c(=O)n1-c1ccccc1 [Compound 22]	> 10000	1000 to 10000	1000 to 10000	100 to 1000	1000 to 10000	100 to 1000
C[C@H](NC(=O)c1nc(-c2cncc(NS(C)(=O)=O)c2)cnc1N)c1cc2cccc(Cl)c2c(=O)n1-c1ccccc1 [Compound 107]	100 to 1000	100 to 1000	< 100	< 100	< 100	100 to 1000
C[C@H](NC(=O)c1nc(-c2cccc(S(=O)(=O)N(C)C)c2)cnc1N)c1cc2cccc(Cl)c2c(=O)n1-c1ccccc1 [Compound 91]	> 10000	1000 to 10000	1000 to 10000	100 to 1000	1000 to 10000	100 to 1000
C[C@H](NC(=O)c1nc(-c2cccc(O)c2)cnc1N)c1cc2cccc(Cl)c2c(=O)n1-c1ccccc1 [Compound 104]	> 10000	> 10000	1000 to 10000	100 to 1000	1000 to 10000	100 to 1000
C[C@H](NC(=O)c1c(N)nn2cccnc12)c1cc2cccc(Cl)c2c(=O)n1-c1ccc(F)c(F)c1 [Compound 75]	1000 to 10000	1000 to 10000	1000 to 10000	< 100	< 100	100 to 1000
C[C@H](NC(=O)c1nc(-c2cccc(S(=O)(=O)NC3CC3)c2)cnc1N)c1cc2cccc(Cl)c2c(=O)n1C [Compound 194]	100 to 1000	100 to 1000	< 100	< 100	< 100	< 100
CC(C)c1ccn2nc(N)c(C(=O)N[C@@H](C)c3cc4cccc(Cl)c4c(=O)n3-c3ccccc3)c2n1 [Compound 178]	> 10000	1000 to 10000	1000 to 10000	< 100	1000 to 10000	100 to 1000
COc1cc(-c2cccc3nc([C@H](C)NC(=O)c4c(N)nn5cccnc45)n(-c4ccccc4)c(=O)c23)ccn1 [Compound 144]	100 to 1000	100 to 1000	1000 to 10000	< 100	< 100	< 100
C[C@H](NC(=O)c1c(N)nn2cccnc12)c1c(C#N)c2cccc(F)c2c(=O)n1-c1ccccc1 [Compound 269]	1000 to 10000	100 to 1000	100 to 1000	< 100	100 to 1000	< 100
C[C@H](NC(=O)c1nc(C#N)cnc1N)c1cc2cccc(Cl)c2c(=O)n1-c1ccccc1 [Compound 111]	> 10000	100 to 1000	100 to 1000	100 to 1000	100 to 1000	< 100
C[C@H](NC(=O)c1c(N)nn2cccnc12)c1cc2cccc(F)c2c(=O)n1-c1ccccc1 [Compound 191]	1000 to 10000	100 to 1000	100 to 1000	< 100	< 100	< 100
CC(C)Oc1cc(-c2cccc3cc([C@H](C)NC(=O)c4c(N)nn5cccnc45)n(-c4ccccc4)c(=O)c23)ccn1 [Compound 138]	> 10000	1000 to 10000	1000 to 10000	< 100	100 to 1000	< 100
Cc1cnc(C(=O)N[C@@H](C)c2cc3cccc(C(F)(F)F)c3c(=O)n2-c2ccccc2)c(N)n1 [Compound 80]	> 10000	> 10000	> 10000	100 to 1000	1000 to 10000	1000 to 10000
C[C@H](NC(=O)c1c(N)nn2cccnc12)c1cc2cccc(Cl)c2c(=O)n1CC(O)CO (stereo partly drawn) [Compound 238]	1000 to 10000	100 to 1000	< 100	< 100	100 to 1000	< 100
C[C@H](NC(=O)c1c(N)nn2cccnc12)c1cc2cccc(Cl)c2c(=O)n1CCN(C)C [Compound 242]	> 10000	< 100	< 100	100 to 1000	1000 to 10000	< 100
CC(=O)NCC#Cc1cccc2cc([C@H](C)NC(=O)c3c(N)nn4cccnc34)n(-c3ccccc3)c(=O)c12 [Compound 165]	1000 to 10000	1000 to 10000	1000 to 10000	< 100	< 100	< 100
C[C@H](NC(=O)c1c(N)nn2cccnc12)c1cc2cccc(-c3cccnc3)c2c(=O)n1-c1ccccc1 [Compound 118]	1000 to 10000	100 to 1000	> 10000	< 100	100 to 1000	< 100
Cc1c([C@H](C)NC(=O)c2c(N)nn3cccnc23)n(-c2ccccc2)c(=O)c2c(F)cccc12 [Compound 260]	1000 to 10000	100 to 1000	100 to 1000	< 100	< 100	< 100
CC(C)NS(=O)(=O)c1cccc(-c2cnc(N)c(C(=O)N[C@@H](C)c3cc4cccc(Cl)c4c(=O)n3-c3ccccc3)n2)c1 [Compound 97]	1000 to 10000	1000 to 10000	100 to 1000	< 100	100 to 1000	< 100
